According to US20080207632A1, “PROTEIN KINASE INHIBITORS” (SUPERGEN, INC., priority 2006, published 2008):
pIC50: −log10 of the molar value.

What was measured:
aurora-2 kinase = molecular target: T1, aurora-2 kinase (Homo sapiens, UniProt O14965); assay: aurora-2 kinase inhibition assay (Kinase-Glo, ATP remaining); type: biochemical; conditions: Example 54, Table 8; 3 μM ATP; read-out: Aurora-2 Inhibition, IC50
T1 construct: purchased Upstate, Lake Placid, N.Y; host or cells: sf9 cells
T1 sequence (O14965 1-403): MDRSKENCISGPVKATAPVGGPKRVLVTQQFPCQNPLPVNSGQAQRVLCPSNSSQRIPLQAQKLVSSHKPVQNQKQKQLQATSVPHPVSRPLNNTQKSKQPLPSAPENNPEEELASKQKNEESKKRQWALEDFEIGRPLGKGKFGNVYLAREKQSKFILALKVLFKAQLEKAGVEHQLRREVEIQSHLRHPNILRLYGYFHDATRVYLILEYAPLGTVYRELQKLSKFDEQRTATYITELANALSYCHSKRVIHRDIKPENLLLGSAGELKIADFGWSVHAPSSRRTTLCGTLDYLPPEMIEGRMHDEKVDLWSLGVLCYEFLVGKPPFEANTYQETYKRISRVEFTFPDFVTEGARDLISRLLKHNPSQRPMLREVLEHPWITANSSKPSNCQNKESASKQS
Method: (§1) In this assay kinase activity was determined by quantifying the amount of ATP remaining in solution following a kinase reaction by measuring the light units (LU) produced by luciferase using a luminometer. Percent inhibition was determined for individual compounds by comparing luminometer readings of drug-treated reactions to controls containing no drug (DMSO control) and no Aurora-2 enzyme (ATP control) in the following equation: […]
(§2) In a 50 μl reaction, recombinant aurora-2 kinase produced in sf9 cells (Upstate, Lake Placid, N.Y.) was incubated at 30° C. for two hours with 62.5 μM Kemptide (Calbiochem, San Diego, Calif.), 3 μM ATP (Invitrogen, Carlsbad, Calif.) and kinase reaction buffer (40 mM Tris-HCl, 10 mM MgCl2 and 0.1 μg/μl bovine serum albumin (BSA)). This reaction was carried out in the presence of drug substances, which had been previously diluted to desired concentrations in DMSO. After incubation, 50 μl of Kinase-Glo® (Promega, Inc., Madison, Wis.) solution was added to each reaction mixture and allowed to equilibrate for 10 minutes at room temperature. Kinase-Glo solution contains luciferase enzyme and luciferin, which react with ATP to produce light. Kinase activity is determined by quantifying the amount of ATP remaining in solution following the kinase reaction by measuring the light units (LU) produced by luciferase using a luminometer (Thermo-Electron, Vantaa, Finland).
as §1, with “Briefly,” for “In this assay”
as §2, with “μg/Il” for “μg/μl”
as §1, with “Illustrative compounds 2-3, 2-5, 2-7, 2-4 and 2-9 were evaluated in an aurora-2 kinase inhibition assay. In” for “In”

[1] = system: MDA-MB-231 breast carcinoma cells; assay: cell proliferation assay (Cell-Titer-Glo), MDA-MB-231; type: cell-based; conditions: Homo sapiens, Example 65, 96 hours, read-out: IC50 (reduce cell number to 50% of untreated controls)
Method: Cell culture-based assays can be used to evaluate the ability of compounds of the invention to inhibit one or more cellular activities, such as cancer cell growth and/or survival. Numerous cancer cell lines can be obtained from the American Type Culture Collection (ATCC) and other sources. Briefly, cells are seeded into 96-well, tissue-culture treated, opaque white plates (Thermo Electron, Vantaa, Finland), at between 5000 and 10000 cells per well, depending on the speed of cell proliferation, in 100 μl of appropriate growth medium (determined by the ATCC). Cells are then exposed to the appropriate concentration of drug or an equal amount of DMSO (drug diluent) and allowed to grow in its presence for 96 hours. Following this, 100 μl of Cell-Titer-Glo reagent (Promega, Inc., Madison, Wis.) is added to each well. Plates are then shaken for 2 minutes at room temperature to allow for cell lysis and incubated for 10 minutes to stabilize the luminescent signal. Similar to the Kinase-Glo assay reagent from Promega, this reagent contains both luciferase enzyme and its substrate luciferin. Luciferase, activated by ATP in the cell lysate, catalyzes the conversion of luciferin to oxyluciferin, a reaction which produces light. The amount of light produced is proportionate to the amount of ATP in the cell lysate, which is itself proportional to cell number and gives an index of cellular proliferation.
Compound 1-1 and Compound 2-11 were tested in a cell proliferation assay to determine potency in a cell-based assay format. Briefly, MDA-MB-231 breast carcinoma cells were inoculated onto 96-well plates and incubated in the presence of compounds for 96 hours. Following incubation, cells were lysed and ATP content used as a surrogate for cell number, using the Cell-Titer-Glo Luminescent Cell Viability Assay Kit (Promega Corp.). IC50 values, representing the concentration required to reduce cell number to 50% of untreated controls, were determined to be 20 uM for Compound 1-1 and 10 uM for Compound 2-11.

[2] = molecular target: T2, phosphorylated Axl in MDA-MB-231 breast carcinoma cells (Homo sapiens, UniProt P30530); assay: Axl autophosphorylation sandwich ELISA in cells; type: cell-based; conditions: 10 uM, 48 hours
T2 construct: endogenous in cells; host or cells: MDA-MB-231 breast carcinoma cells
T2 sequence (P30530 26-894): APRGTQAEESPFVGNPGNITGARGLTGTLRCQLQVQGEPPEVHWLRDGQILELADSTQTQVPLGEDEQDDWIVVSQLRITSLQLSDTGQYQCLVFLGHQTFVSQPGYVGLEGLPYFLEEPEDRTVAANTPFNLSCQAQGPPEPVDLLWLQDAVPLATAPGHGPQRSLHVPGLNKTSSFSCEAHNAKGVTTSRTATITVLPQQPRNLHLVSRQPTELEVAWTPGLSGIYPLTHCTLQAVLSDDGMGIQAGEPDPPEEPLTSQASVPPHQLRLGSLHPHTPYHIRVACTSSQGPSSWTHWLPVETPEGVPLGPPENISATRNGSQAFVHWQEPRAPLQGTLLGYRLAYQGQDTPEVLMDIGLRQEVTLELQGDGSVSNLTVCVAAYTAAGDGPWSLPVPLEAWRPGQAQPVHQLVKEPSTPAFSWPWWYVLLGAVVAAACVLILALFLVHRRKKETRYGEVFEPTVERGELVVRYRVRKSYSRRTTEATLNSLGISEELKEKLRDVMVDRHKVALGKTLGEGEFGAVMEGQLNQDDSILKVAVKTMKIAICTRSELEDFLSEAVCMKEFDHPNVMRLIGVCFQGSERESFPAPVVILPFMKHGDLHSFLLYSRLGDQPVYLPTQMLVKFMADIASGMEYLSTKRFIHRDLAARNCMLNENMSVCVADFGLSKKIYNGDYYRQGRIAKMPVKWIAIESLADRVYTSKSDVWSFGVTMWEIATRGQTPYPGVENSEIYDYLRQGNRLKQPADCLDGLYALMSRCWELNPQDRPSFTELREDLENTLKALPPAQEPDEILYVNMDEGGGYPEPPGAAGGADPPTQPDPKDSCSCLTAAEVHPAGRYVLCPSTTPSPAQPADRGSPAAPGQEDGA
Method: Compound 2-11 was examined in a cell-based assay to determine its ability to reduce the activity of the Axl kinase enzyme in cell culture. Axl, like many receptor tyrosine kinases, autophosphorylates in response to growth factor stimulation. Briefly, MDA-MB-231 breast carcinoma cells were plated in 25 cm^2 tissue culture flasks and incubated in the presence of varying concentrations of Compound 2-11 for 48 hours. Following incubation, cells were lysed and the presence of phosphorylated Axl was detected using a commercially available sandwich ELISA assay kit (R&D Systems Inc.). […] For example, at concentrations as low as 10 uM, levels of phosphorylated Axl were reduced to less than 50% of those observed for untreated control samples.

[3] = system: Granta-4 lymphoma cell line; assay: lymphoma cell number reduction, Granta-4; type: cell-based; conditions: 48 hours; read-out: IC50 Values Granta-4, single agent
Method: (§3) New IC50 values were calculated for the second agent in an effort to determine whether or not pretreatment with one compound would increase sensitivity to the other. As set forth in the table below, compound 2-3 pretreatment led to an increased sensitivity to Taxol®, however Taxol® pretreatment appeared to be […] to compound 2-3 in this assay.

[4] = system: Granta-22 lymphoma cell line; assay: lymphoma cell number reduction, Granta-22; type: cell-based; conditions: 48 hours; read-out: IC50 Values Granta-22, single agent
Method: as §3

COc1cc2[nH]c3ncnc(N4CCN(C(=S)Nc5ccc(S(=O)(=O)Nc6ccc(C(F)(F)F)cc6)cc5)CC4)c3c2cc1OC [Compound 2-4, 4-(6,7-dimethoxy-9H-pyrimido[4,5-b]indol-4-yl)-N-(4-(N-(4-trifluoronethylhenyl)sulfamoyl)phenyl)piperazine-1-carbothioamide]
pIC50 (aurora-2 kinase): 6.82

CCc1nnc(NS(=O)(=O)c2ccc(NC(=S)N3CCN(c4ncnc5[nH]c6ccc(Cl)cc6c45)CC3)cc2)s1 [Compound 2-11]
pIC50 [1]: 5.00
levels of phosphorylated Axl relative to untreated control samples [2]: less than 50%

CC(=O)O[C@H]1C(=O)[C@@]2(C)[C@H]([C@H](OC(=O)c3ccccc3)[C@]3(O)C[C@H](OC(=O)[C@H](O)[C@@H](NC(=O)c4ccccc4)c4ccccc4)C(C)=C1C3(C)C)[C@]1(OC(C)=O)CO[C@@H]1C[C@@H]2O [Taxol ®, reference compound]
pIC50 [3]: 6.52
pIC50 [4]: 5.56
